# Source: US20230201217A1 (priority 2019, published 2023)
# pIC50: −log10 of the molar value. “And” between values parts separate entries of the source, which are not always exact repeats. Identical values can stand only once. Like-named read-outs stand apart in the source and are kept apart here.
# Assays:
# [1] = tested on: isolated rabbit Purkinje fibers; experiment: Action potential duration in rabbit cardiac Purkinje fibers; conditions: 50 μM, positive control
# Method: The in vitro effect of 18-MC on the cardiac action potential was evaluated in isolated rabbit Purkinje fibers (FIG. 13). […] Fibers with resting potentials more negative than −80 mV and normal action potential morphology (APD90≥150 ms) were used in the study. Fibers were stimulated continuously at BCL of 1 second for at least 5 minutes. At the end of this period, baseline control APD rate dependence was measured using stimulus pulse trains consisting of approximately 50 pulses at BCL of 1 and 0.5 seconds. After returning to BCL of 1 second, 18-MC (or dl-sotalol) at the lowest concentration was applied for at least 20 minutes to allow equilibration, and the stimulus trains repeated. […] The average responses from the last five recorded action potentials from each stimulus train were analyzed for each test condition.
# Electrophysiological recordings were performed with four nominal concentrations of 18-MC (0.3, 1, 3, and 10 μM) added sequentially to four preparations at two stimulus intervals (basic cycle lengths of 1 s and 0.5 s). The effects of 18-MC on action potential parameters were compared to time-matched vehicle control sequences.
# [2] = Phase 1 first-in-human study, pharmacokinetics in plasma; conditions: for percentage of the total drug related material: 4 mg twice at 0 and +10 hours; for Cmax: Average
# Method: Fourteen normal, healthy volunteers were enrolled in the study. Seven volunteers were treated in the first cohort (3 placebo, 4 received a single dose of 20 mg of 18-MC) and seven in the second cohort (2 placebo, 5 received 8 mg as 4 mg doses of 18-MC administered at 0 and plus 10 hours). For Cohort A, volunteers were monitored in a hospital unit for 2 days (36 hours) days, and were followed up for safety at Days 3, 7 and 30. For Cohort B, volunteers were monitored in a hospital unit for 2 days (36 hours), and were followed up for safety at Days 3, 4, 7 and 30.
# This study was designed as a randomized, double-blind, placebo-controlled, single-center Phase 1 first-in-human clinical trial. After screening, volunteers were admitted to the hospital for 36 hours. […] Study article was initiated on Day 1 and volunteers were discharged on Day 2. Cohort A were seen as outpatients on Days 3, 7 and 30. Cohort B were seen as outpatients on Days 3, 4, 7 and 30. 14 subjects were in the study, 5 male and 9 female.
# For Cohort A, pharmacokinetic samples were obtained at baseline and at 0.5, 1.0, 2.0, 6.0, 12.0, 24, 36 hours, and 7 days post dose.
# Samples underwent two analyses: A research assay (LG/MS/TOF) developed by MicroConstants, Inc., was used to collect the raw data. The first analysis was to quantitate 18-MG and the known metabolites M2, M4 and M5 (using standard curves included in the run). The second analysis compared the peak heights of 18-MG and all the metabolites that could be identified in terms of relative peak height (M1 through M10, and P1-P3).
# [3] = tested on: mouse liver; experiment: In vivo comet assay; conditions: positive control
# Method: The comet assay (alkaline single cell gel electrophoresis) is a microgel electrophoretic technique that detects DNA damage in individual cells. DNA damage can be expressed as DNA single strand breaks, double strand breaks, and strand breaks induced by alkali labile sites. […] For this study, the liver was selected as the tissue for evaluation, since this tissue is expected to contain high concentrations of parent drug and metabolites following oral administration.
# Male mice were administered oral doses of 0 (vehicle=5% dextrose), 50, 90 and 120 mg/kg/day by gavage according to the table below. Animals in groups 1-4 were dosed on three consecutive days and euthanized 3 to 4 hours after the last dose by CO2 inhalation. A separate group of animals were dosed with methyl methanesulfonate (MMS) which served as a positive control. Immediately following euthanasia, the liver was removed and collected from each animal.
# In this study, comet tail migration, % tail DNA (also known as % tail intensity) and tail moment were determined for each animal/treatment group and served as parameters of DNA damage.
# [4] = target: T1, rat α3β4 nicotinic acetylcholine receptor (nAChR) (Rattus norvegicus, UniProt P04757+P12392); experiment: cell-based; conditions: for Persistent Inhibition at 1 sec: 1 second after removal of drug; for koff: HEK293
# T1 construct: expressed in transfected cells; host or cells: HEK 293 (ATCC CRL1573), transient, Lipofectamine 2000
# T1 sequence (P04757 26-499): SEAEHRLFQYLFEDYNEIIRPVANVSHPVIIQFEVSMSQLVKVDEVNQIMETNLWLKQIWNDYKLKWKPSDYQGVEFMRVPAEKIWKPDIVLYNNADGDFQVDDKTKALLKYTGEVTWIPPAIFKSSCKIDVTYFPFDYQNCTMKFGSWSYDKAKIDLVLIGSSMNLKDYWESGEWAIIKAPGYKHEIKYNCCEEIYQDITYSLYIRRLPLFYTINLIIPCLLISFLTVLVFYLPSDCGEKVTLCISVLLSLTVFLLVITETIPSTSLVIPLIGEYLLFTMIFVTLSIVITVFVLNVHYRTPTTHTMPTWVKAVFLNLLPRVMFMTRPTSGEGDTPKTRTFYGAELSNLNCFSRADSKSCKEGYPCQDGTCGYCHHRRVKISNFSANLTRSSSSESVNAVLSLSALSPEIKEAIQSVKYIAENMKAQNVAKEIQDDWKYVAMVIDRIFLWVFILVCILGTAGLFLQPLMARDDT
# T1 sequence (P12392 21-495): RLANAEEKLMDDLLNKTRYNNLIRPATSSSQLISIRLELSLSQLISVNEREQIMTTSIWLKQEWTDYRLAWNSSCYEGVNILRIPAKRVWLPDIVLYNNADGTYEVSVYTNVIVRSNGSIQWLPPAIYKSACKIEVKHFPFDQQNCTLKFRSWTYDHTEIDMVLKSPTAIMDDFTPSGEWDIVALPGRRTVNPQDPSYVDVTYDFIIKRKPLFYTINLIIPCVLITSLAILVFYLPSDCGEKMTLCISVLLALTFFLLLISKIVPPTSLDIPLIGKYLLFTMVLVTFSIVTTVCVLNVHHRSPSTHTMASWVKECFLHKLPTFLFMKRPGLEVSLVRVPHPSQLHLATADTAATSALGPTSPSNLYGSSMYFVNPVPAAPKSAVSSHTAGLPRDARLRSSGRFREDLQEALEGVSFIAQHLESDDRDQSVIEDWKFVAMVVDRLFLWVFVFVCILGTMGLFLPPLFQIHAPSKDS
# [5] = both, human, plasma, po, 4 mg, cohort B, 4 mg PO at 0 and +10 hours
# [6] = both, human, plasma, po, 20 mg, cohort A, 20 mg PO single dose
# [7] = cohort B, 4 mg PO at 0 and +10 hours
SMILES,percentage of the total drug related material [2],"AUC ([2]; both, human, plasma, po, 4 mg) [ng·h/mL]","AUC(0-inf) ([2]; both, human, plasma, po, 4 mg) [ng·h/mL]","Tmax ([2]; both, human, plasma, po, 4 mg) [h]","half-life ([2]; both, human, plasma, po, 4 mg) [h]","Cmax [2, 5] [ng/mL]","AUC ([2]; both, human, plasma, po, 20 mg) [ng·h/mL]","AUC(0-inf) ([2]; both, human, plasma, po, 20 mg) [ng·h/mL]","Tmax ([2]; both, human, plasma, po, 20 mg) [h]","half-life ([2]; both, human, plasma, po, 20 mg) [h]","Cmax [2, 6] [ng/mL]","AUCall, Max ([2]; cohort A, 20 mg PO single dose) [ng·h/mL]","AUCall, Min ([2]; cohort A, 20 mg PO single dose) [ng·h/mL]","Cmax, Max ([2]; cohort A, 20 mg PO single dose) [ng/mL]","Cmax, Min ([2]; cohort A, 20 mg PO single dose) [ng/mL]","Half-Life, Max ([2]; cohort A, 20 mg PO single dose) [h]","Half-Life, Min ([2]; cohort A, 20 mg PO single dose) [h]","Tmax, Max ([2]; cohort A, 20 mg PO single dose) [h]","Tmax, Min ([2]; cohort A, 20 mg PO single dose) [h]","AUCall, Max [2, 7] [ng·h/mL]",also measured
"CC(C)NCC(O)c1ccc(NS(C)(=O)=O)cc1 (racemic) [dl-Sotalol, reference compound]",–,–,–,–,–,–,–,–,–,–,–,–,–,–,–,–,–,–,–,–,APD60 prolongation [1]: ~40%; APD90 prolongation [1]: ~40%
"COC(=O)C12CC3CC(CCO[C@@H]4O[C@H](C(=O)O)[C@@H](O)[C@H](O)[C@H]4O)C1N(C=Cc1c2[nH]c2ccccc12)C3 (stereo partly drawn) [P10, (2S,3S,4S,5R,6R)-3,4,5-trihydroxy-6-(2-(6-(methoxycarbonyl)-6,6a,7,8,9,10-hexahydro-5H-6,9-methanopyrido[1′,2′:1,2]azepino[4,5-b]indol-7-yl)ethoxy)tetrahydro-2H-pyran-2-carboxylic acid]",greater than 10%,–,–,–,–,–,–,–,–,–,–,–,–,–,–,–,–,–,–,–,"Tmax ([2]; both, human, plasma, oral, 4 mg): 6 to 10 h"
"COS(C)(=O)=O [MMS, methyl methanesulfonate, reference compound]",–,–,–,–,–,–,–,–,–,–,–,–,–,–,–,–,–,–,–,–,comet parameters [3]: produced the expected increases
"COC(=O)C12CC3CC(CCO)C1N(C=Cc1c2[nH]c2ccccc12)C3 (stereo not drawn) [M2, methyl7-(2-hydroxyethyl)-7,8,9,10-tetrahydro-5H-6,9-methanopyrido[1′,2′:1,2]azepino[4,5-b]indole-6(6aH)-carboxylate]",–,391,420,11.8,44.1,11,563,678,1.4,14.4,41,684,504,62,27,19.0,11.1,2.0,0.5,500,"AUCall, Min [2, 7]: 287 ng·h/mL; Cmax, Max [2, 7]: 12 ng/mL; Cmax, Min [2, 7]: 8 ng/mL; Half-Life, Max [2, 7]: 97.8 h; Half-Life, Min [2, 7]: 18.7 h; Tmax, Max [2, 7]: 12 h; Tmax, Min [2, 7]: 11 h"
"COCCC1CC2CN3C=Cc4c([nH]c5ccc(O)cc45)C(C(=O)OC)(C2)C13 (stereo not drawn) [M8, methyl 2-hydroxy-7-(2-methoxyethyl)-7,8,9,10-tetrahydro-5H-6,9-methanopyrido[1′,2′:1,2]azepino[4,5-b]indole-6(6aH)-carboxylate]",less than 10%,–,–,–,–,–,–,–,–,–,–,–,–,–,–,–,–,–,–,–,–
"COC(=O)C12CC3CC(CC(=O)O)C1N(CCc1c2[nH]c2ccccc12)C3 (stereo not drawn) [M5, 2-(6-(methoxycarbonyl)-6,6a,7,8,9,10,12,13-octahydro-5H-6,9-methanopyrido[1′,2′:1,2]azepino[4,5-b]indol-7-yl)acetic acid]",–,163,185,2.9,46.8,6,210,395,0.8,29.6,25,359,105,38,12,43.4,16.2,1.0,0.5,208,"pIC50 [4]: 4.24; Ipeak [4]: 70 ± 4% of ACh; Iss [4]: 62 ± 4% of peak; Max Inhibition 20-30 μM [4]: 36 ± 5 %; fold less potent than the parent 18-MC HCl [4]: ~76 fold; kon [4]: 2.2 and 2.2 ± 0.4 s−1; τdecay [4]: 554 ± 32 ms; Persistent Inhibition at 1 sec [4]: 2±2%; koff [4]: 6.2 s⁻¹; Tmax ([2]; cohort A or B, generally): ½; AUCall, Min [2, 7]: 104 ng·h/mL; Cmax, Max [2, 7]: 9 ng/mL; Cmax, Min [2, 7]: 3 ng/mL; Half-Life, Max [2, 7]: 74.7 h; Half-Life, Min [2, 7]: 19.8 h; Tmax, Max [2, 7]: 11 h; Tmax, Min [2, 7]: 0.5 h"
"COCCC1CC2CN3C=Cc4c([nH]c5ccccc45)C(C(=O)OC)(C2)C13 (stereo not drawn) [M4, methyl7-(2-methoxyethyl)-7,8,9,10-tetrahydro-5H-6,9-methanopyrido[1′,2′:1,2]azepino[4,5-b]indole-6(6aH)-carboxylate]",about 40%,1650,1650,7.3,22.1,72,2690,2800,1.4,7.9,347,3925,1897,528,242,9.3,6.3,2.0,0.5,1941,"pIC50 [4]: 5.59; Ipeak [4]: 23 ± 2% of ACh and 42 ± 3% of ACh; Max Inhibition 20-30 μM [4]: 88 ± 3%; fold less potent than the parent 18-MC HCl [4]: approximately 3.5 fold; kon [4]: 4.5 and 4.5 ± 0.4 s−1; reduction of peak ACh-evoked currents [4]: 68±2% and 86±2%; Ipeak ([4]; 30 μM): 14 ± 2% of ACh; Iss ([4]; 30 μM): 40 ± 6% of peak; τdecay ([4]; 30 μM): 205 ± 40 ms; Persistent Inhibition at 1 sec [4]: 21±3%; koff [4]: 2.5 s⁻¹; Tmax ([2]; cohort A or B, generally): ½; AUCall, Min [2, 7]: 1304 ng·h/mL; Cmax, Average [2, 7]: 72.3 ng/mL; Cmax, Max [2, 7]: 82 ng/mL; Cmax, Min [2, 7]: 65 ng/mL; Half-Life, Max [2, 7]: 34.3 h; Half-Life, Min [2, 7]: 13.2 h; Tmax, Max [2, 7]: 12 h; Tmax, Min [2, 7]: 0.5 h"
